Key:
Harmaline-induced tremor = assay: animal or person; type: in vivo, male Sprague-Dawley rats; details: po; for inhibition in vivo at 130 mg/kg / ED50 / inhibition in vivo at 100 mg/kg: Rattus norvegicus; for inhibition in vivo at 130 mg/kg / inhibition in vivo at 100 mg/kg: 0.5 h, read-out: Protection % (percentage of activity compared to the vehicle only); for On-set time Mean ± S.E.M. / On-set time Median / Tremor score Mean ± S.E.M. / Tremor score Median: rat, in vivo
[1] = tested on: motor abilities on the Rotarod; assay: Neurotoxicity (Rotarod); type: in vivo; details: protective index, mice
Procedure: The measurement of neurotoxicity of the test compounds was conducted by the method of Dunham and Miya [Dunham, N. W. and Miya, T. S. 1957. A note on a simple apparatus for detecting neurological deficit in rats and mice. J. Am. Pharm. Assoc. (Baltimore) 46: 208˜209]. In the method, motor abilities of the test animals can be determined by observing whether the test animals can walk without falling from a rotator, thereby determining the value of neurotoxicity of each compound. […] They were pre-trained on the rotarod (Rotarod; Columbus instrument, rota-max, USA) at 6 rpm for 5 min 24 hr prior to the test. The peak time was determined by administration test material's random dose for 0.5, 1, 2, 4 hour. […] The ratio of TD50 to ED50 (TD50/ED50) is called as a protective index, and useful as a parameter for comparison of pharmaceutical efficacy and neurotoxicity.

[2] = tested on: MES (electrical stimulus) seizure; assay: animal or person; type: in vivo, male ICR mice; details: for Protection % (percentage of activity compared to the vehicle only): mouse, in vivo

## CC(OC(N)=O)C(O)c1ccccc1Cl (racemic) [Compound 3, 1-(2-chlorophenyl)-1-hydroxypropyl-2-carbamate]
Harmaline-induced tremor
  inhibition in vivo at 130 mg/kg: 75%
[1]
  PI(TD50/ED50 in MES): 12.0

## CCCNC(=O)O[C@H](C)[C@H](O)c1ccccc1Cl (racemic) [Compound 30, 1-(2-chlorophenyl)-1-hydroxypropyl-2-propylcarbamate]
[2]
  Protection % (percentage of activity compared to the vehicle only): 200 ^a(25%)

## C[C@H](OC(N)=O)[C@@H](O)c1ccccc1Cl [Compound 1, 1-(2-chlorophenyl)-(S)-1-hydroxypropyl-(S)-2-carbamate]
Harmaline-induced tremor
  ED50: 12.9 mg/kg
Harmaline-induced tremor; 5 mg/kg
  On-set time Mean ± S.E.M.: 243 ± 7 s
  On-set time Median: 250 s
  Tremor score Mean ± S.E.M.: 4.8 ± 0.5
  Tremor score Median: 5.0
Harmaline-induced tremor; 10 mg/kg
  On-set time Mean ± S.E.M.: 289 ± 19 s
  On-set time Median: 265 s
  Tremor score Mean ± S.E.M.: 3.6 ± 0.6
  Tremor score Median: 2.5
Harmaline-induced tremor; 20 mg/kg
  On-set time Mean ± S.E.M.: 367 ± 21 s
  On-set time Median: 375 s
  Tremor score Mean ± S.E.M.: 1.8 ± 0.1
  Tremor score Median: 1.8

## C[C@@H](OC(N)=O)[C@H](O)c1ccccc1Cl [Compound 2, 1-(2-chlorophenyl)-(R)-1-hydroxypropyl-(R)-2-carbamate]
Harmaline-induced tremor
  inhibition in vivo at 130 mg/kg: 66.7%
[1]
  PI(TD50/ED50 in MES): 7.3

## C[C@@H](OC(N)=O)[C@@H](O)c1ccccc1Cl [Compound 4, 1-(2-chlorophenyl)-(S)-1-hydroxypropyl-(R)-2-carbamate]
Harmaline-induced tremor
  inhibition in vivo at 100 mg/kg: 66.7%

## C[C@H](OC(N)=O)[C@H](O)c1ccccc1Cl [Compound 5, 1-(2-chlorophenyl)-(R)-1-hydroxypropyl-(S)-2-carbamate]
[1]
  PI(TD50/ED50 in MES): 3.3

## CC[C@H](OC(N)=O)[C@@H](O)c1ccccc1Cl [Compound 6, 1-(2-chlorophenyl)-(S)-1-hydroxybutyl-(S)-2-carbamate]
Harmaline-induced tremor
  inhibition in vivo at 130 mg/kg: 75%

## CC(C)[C@H](OC(N)=O)[C@@H](O)c1ccccc1Cl [Compound 9, 1-(2-chlorophenyl)-(S)-1-hydroxy-3-methyl-butyl-(S)-2-carbamate]
Harmaline-induced tremor
  inhibition in vivo at 130 mg/kg: 58.3%

## CCCNC(=O)O[C@@H](C)[C@@H](O)c1ccccc1Cl [Compound 16, 1-(2-chlorophenyl)-(S)-1-hydroxypropyl-(S)-2-N-propylcarbamate]
[2]
  Protection % (percentage of activity compared to the vehicle only): 200 ^a(25%)

## C[C@H](OC(=O)NC1CC1)[C@@H](O)c1ccccc1Cl [Compound 25, 1-(2-chlorophenyl)-(R)-1-hydroxypropyl-(R)-2-N-cyclopropylcarbamate]
[2]; Mus musculus, po, read-out: Protection % (percentage of activity compared to the vehicle only)
  responders at 200 mg/kg: 25%

## C[C@H](OC(N)=O)[C@@H](O)c1ccc(Cl)cc1Cl [Compound 36, 1-(2,4-dichlorophenyl)-(S)-1-hydroxypropyl-(S)-2-carbamate]
Harmaline-induced tremor
  inhibition in vivo at 130 mg/kg: 83.3%

## C[C@H](OC(N)=O)[C@@H](O)c1c(Cl)cccc1Cl [Compound 37, 1-(2,6-dichlorophenyl)-(S)-1-hydroxypropyl-(S)-2-carbamate]
Harmaline-induced tremor
  inhibition in vivo at 130 mg/kg: 91.7%
[1]
  PI(TD50/ED50 in MES): 5.1

## C[C@H](OC(N)=O)[C@@H](O)c1cccc(Cl)c1Cl [Compound 38, 1-(2,3-dichlorophenyl)-(S)-1-hydroxypropyl-(S)-2-carbamate]
Harmaline-induced tremor
  inhibition in vivo at 100 mg/kg: 55%

## CC[C@H](OC(N)=O)[C@@H](O)c1ccc(Cl)cc1Cl [Compound 39, 1-(2,4-dichlorophenyl)-(S)-1-hydroxybutyl-(S)-2-carbamate]
Harmaline-induced tremor
  inhibition in vivo at 130 mg/kg: 66.7%

## CC(C)[C@H](OC(N)=O)[C@@H](O)c1c(Cl)cccc1Cl [Compound 42, 1-(2,6-dichlorophenyl)-(S)-1-hydroxy-3-methyl-butyl-(S)-2-carbamate]
Harmaline-induced tremor
  inhibition in vivo at 100 mg/kg: 71.7%

## C[C@@H](OC(N)=O)[C@H](O)c1c(Cl)cccc1Cl [Compound 46, 1-(2,6-dichlorophenyl)-(R)-1-hydroxypropyl-(R)-2-carbamate]
Harmaline-induced tremor
  inhibition in vivo at 100 mg/kg: 58.3%

## C[C@H](OC(N)=O)[C@@H](O)c1ccccc1F [Compound 63, 1-(2-fluorophenyl)-(S)-1-hydroxypropyl-(S)-2-carbamate]
Harmaline-induced tremor
  inhibition in vivo at 100 mg/kg: 83.3%

## C[C@H](OC(N)=O)[C@@H](O)c1ccccc1I [Compound 65, 1-(2-iodophenyl)-(S)-1-hydroxypropyl-(S)-2-carbamate]
Harmaline-induced tremor
  ED50: 19.2 mg/kg

## CC[C@H](OC(N)=O)[C@@H](O)c1ccccc1I [Compound 67, 1-(2-iodophenyl)-(S)-1-hydroxybutyl-(S)-2-carbamate]
Harmaline-induced tremor
  inhibition in vivo at 100 mg/kg: 83.3%

From patent US9872847B2 (priority 2013, dated 2018)
